Here are results for 17 compounds from patent publication US9096560B2, “5-heterocyclylalkyl-3-hydroxy-2-phenylcyclopent-2-enones as herbicides” (Syngenta Limited, priority 2008, dated 2015).

What all share (format): in vivo
Experiment [1] has as its system Lolium perenne (LOLPE). Kind of experiment: Example B post-emergence herbicidal test, LOLPE. Conditions: Lolium perenne, 312 h, rate 250 g/ha, evaluated after 13 days, scale 0-100, read-out: Post-emergence activity LOLPE (100=total damage to plant; 0=no damage to plant). The essentials: (§1)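 Damage was rated visually 13 days after treatment, where 100 meant total plant damage and 0 none. Treatment was a spray of aqueous solution (acetone/water 50:50, 0.5% Tween 20) applied to plants cultivated 8 days from seed under controlled glasshouse conditions.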

For experiment [2], the system named is Lolium perenne (LOLPE). Kind of experiment: Example B pre-emergence herbicidal test, LOLPE. The settings on record: Lolium perenne, 312 h, rate 250 g/ha, evaluated after 13 days, 100=total damage to plant, 0=no damage to plant. The essentials:
(§2)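 Plants were rated 13 days after treatment, 0 = no damage to 100 = total damage. They were grown in a glasshouse at 24/16 °C, 14 h light, 65% humidity and watered twice daily. Pre-emergence spray was applied one day after sowing, formulated in acetone/water 50:50 with 0.5% Tween 20.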

Experiment [3] has as its system Alopecurus myosuroides (ALOMY). Kind of experiment: Example B post-emergence herbicidal test, ALOMY. The settings on record: Alopecurus myosuroides, 312 h, rate 250 g/ha, evaluated after 13 days, scale 0-100, read-out: Post-emergence activity ALOMY (100=total damage to plant; 0=no damage to plant). The essentials:
as §1

In experiment [4] the test system is Avena fatua (AVEFA). The experiment is described as follows: Example B post-emergence herbicidal test, AVEFA. Conditions: Avena fatua, 312 h, rate 250 g/ha, evaluated after 13 days, scale 0-100, read-out: Post-emergence activity AVEFA (100=total damage to plant; 0=no damage to plant). In outline:
as §1

In experiment [5] the test system is Echinochloa crus-galli (ECHCG). Kind of experiment: Example B post-emergence herbicidal test, ECHCG. Conditions: Echinochloa crus-galli, 312 h, rate 250 g/ha, evaluated after 13 days, scale 0-100, read-out: Post-emergence activity ECHCG (100=total damage to plant; 0=no damage to plant). The essentials:
as §1

For experiment [6], the system named is Alopecurus myosuroides (ALOMY). Kind of experiment: Example B pre-emergence herbicidal test, ALOMY. Conditions: Alopecurus myosuroides, 312 h, rate 250 g/ha, evaluated after 13 days, 100=total damage to plant, 0=no damage to plant. In outline:
as §2

Experiment [7] has as its system Avena fatua (AVEFA). Kind of experiment: Example B pre-emergence herbicidal test, AVEFA. The settings on record: Avena fatua, 312 h, rate 250 g/ha, evaluated after 13 days, 100=total damage to plant, 0=no damage to plant. In outline:
as §2

For experiment [8], the system named is Echinochloa crus-galli (ECHCG). Kind of experiment: Example B pre-emergence herbicidal test, ECHCG. The settings on record: Echinochloa crus-galli, 312 h, rate 250 g/ha, evaluated after 13 days, 100=total damage to plant, 0=no damage to plant. In outline: as §2

As for `Cc1cccc(C(=O)N2CCC(CC3CC(=O)C(c4c(C)cc(C)cc4C)C3=O)CC2)c1` (stereo not shown) [Compound T122], the pest or weed control at 250 g/ha was determined as 80% in the experiment with Lolium perenne (LOLPE) [1]; 50% with Lolium perenne (LOLPE) [2]; 60% in experiment [3]; 30% in the experiment on Avena fatua (AVEFA) [4]; 70% in experiment [5]; 20% in experiment [6]. Further, the pest or weed control at 250 g/ha in the experiment with Avena fatua (AVEFA) [7] was 20%; in experiment [8], 70%.

As for `COCCOC(=O)N1CCC(CC2CC(=O)C(c3c(C)cc(C)cc3C)C2=O)CC1` (stereo not shown) [Compound T123], the pest or weed control at 250 g/ha with Lolium perenne (LOLPE) [1] was 70%; in the experiment with Lolium perenne (LOLPE) [2], 60%; in experiment [3], 80%; with Avena fatua (AVEFA) [4], 90%; in experiment [5] it was 60%; in experiment [6] it was 60%. Besides, the pest or weed control at 250 g/ha (in the experiment with Avena fatua (AVEFA) [7]; in experiment [8]) was 60% in each case.

On to `Cc1cc(C)c(C2C(=O)CC(CC3CCN(C(=O)c4cn(C)nc4C(F)F)CC3)C2=O)c(C)c1` (stereo not shown) [Compound T124], for which the pest or weed control at 250 g/ha in the experiment on Lolium perenne (LOLPE) [1] came to 20%; in the experiment with Lolium perenne (LOLPE) [2], 20%; in experiment [3], 30%; with Avena fatua (AVEFA) [4], 30%; in experiment [5] it was 20%; in experiment [6], 20%. In addition, the pest or weed control at 250 g/ha with Avena fatua (AVEFA) [7] is 10%; in experiment [8] it was 30%.

For the compound `Cc1cc(C)c(C2C(=O)CC(CC3CCN(C(=O)c4ccsc4)CC3)C2=O)c(C)c1` (stereo not shown) [Compound T126], the pest or weed control at 250 g/ha with Lolium perenne (LOLPE) [1] stood at 70%; with Lolium perenne (LOLPE) [2], 60%; in experiment [3], 50%; with Avena fatua (AVEFA) [4], 70%; in experiment [5], 60%; in experiment [6], 30%. Besides, the pest or weed control at 250 g/ha was 40% in the experiment on Avena fatua (AVEFA) [7] and 50% in experiment [8].

As to `Cc1cc(C)c(C2C(=O)CC(CC3C[C@@H]4O[C@H]3[C@@H]3C(=O)N(C)C(=O)[C@@H]34)C2=O)c(C)c1` (stereo partly shown) [Compound T128], the pest or weed control at 250 g/ha in the experiment on Lolium perenne (LOLPE) [1] is 50%; in the experiment with Lolium perenne (LOLPE) [2] it was 50%; in experiment [3] it was 40%; in the experiment with Avena fatua (AVEFA) [4] it was 90%; in experiment [5], 50%; in experiment [6], 70%. Also, the figures for the pest or weed control at 250 g/ha (in the experiment on Avena fatua (AVEFA) [7]; in experiment [8]) were 40% and 60%, respectively.

With `Cc1cc(C)c(C2C(=O)CC(CC3OCCO3)C2=O)c(C)c1` (stereo not shown) [Compound T130], the pest or weed control at 250 g/ha was found to be 90% in the experiment on Lolium perenne (LOLPE) [1]; 100% in the experiment with Lolium perenne (LOLPE) [2]; 60% in experiment [3]; 70% in the experiment on Avena fatua (AVEFA) [4]; 60% in experiment [5]; 70% in experiment [6]. Also, the pest or weed control at 250 g/ha in the experiment on Avena fatua (AVEFA) [7] came out at 10%; in experiment [8], 30%.

As to `Cc1cc(C)c(C2C(=O)CC(CC3CCN(C(=O)C(F)(F)C(F)F)C3)C2=O)c(C)c1` (stereo not shown) [Compound T131], the pest or weed control at 250 g/ha with Lolium perenne (LOLPE) [1] was 100%; in the experiment with Lolium perenne (LOLPE) [2], 90%; in experiment [3], 90%; in the experiment with Avena fatua (AVEFA) [4], 90%; in experiment [5], 90%; in experiment [6], 70%. Moreover, the pest or weed control at 250 g/ha in the experiment on Avena fatua (AVEFA) [7] was 70%; in experiment [8], 100%.

Take `Cc1cc(-c2ccc(Cl)cc2F)cc(C)c1C1C(=O)C/C(=C\C2CCOCC2)C1=O` (stereo not shown) [Compound T132]: the pest or weed control at 250 g/ha in the experiment with Lolium perenne (LOLPE) [1] was found to be 70%; in the experiment with Lolium perenne (LOLPE) [2] it was 70%; in experiment [3], 70%; in the experiment on Avena fatua (AVEFA) [4], 80%; in experiment [5] it was 100%; in experiment [6], 20%. For the same compound, the pest or weed control at 250 g/ha with Avena fatua (AVEFA) [7] amounted to 70%; in experiment [8], 90%.

As to `Cc1cc(-c2ccc(Cl)cc2F)cc(C)c1C1C(=O)C/C(=C\C2CCOC2)C1=O` (stereo not shown) [Compound T135], the pest or weed control at 250 g/ha turned out to be 70% with Lolium perenne (LOLPE) [1]; 40% in the experiment with Lolium perenne (LOLPE) [2]; 80% in experiment [3]; 80% with Avena fatua (AVEFA) [4]; 90% in experiment [5]; 0% in experiment [6]. For the same compound, the pest or weed control at 250 g/ha in the experiment with Avena fatua (AVEFA) [7] was determined as 30%; in experiment [8], 60%.

Consider `Cc1cc(Br)cc(C)c1C1C(=O)CC(CC2CCOCC2)C1=O` (stereo not shown) [Compound T138], for which the pest or weed control at 250 g/ha is 90% in the experiment on Lolium perenne (LOLPE) [1]; 90% in the experiment on Lolium perenne (LOLPE) [2]; 90% in experiment [3]; 90% in the experiment on Avena fatua (AVEFA) [4]; 70% in experiment [5]; 80% in experiment [6]. Moreover, the pest or weed control at 250 g/ha was 70% with Avena fatua (AVEFA) [7] and 90% in experiment [8].

On to `Cc1cc(-c2ccccc2F)cc(C)c1C1C(=O)CC(CC2CCOCC2)C1=O` (stereo not shown) [Compound T139], for which the pest or weed control at 250 g/ha in the experiment on Lolium perenne (LOLPE) [1] is 90%; in the experiment on Lolium perenne (LOLPE) [2], 80%; in experiment [3], 90%; in the experiment with Avena fatua (AVEFA) [4], 90%; in experiment [5] it was 100%; in experiment [6], 70%. Moreover, the pest or weed control at 250 g/ha in the experiment with Avena fatua (AVEFA) [7] turned out to be 60%; in experiment [8], 90%.

`Cc1cc(-c2ccccc2F)cc(C)c1C1C(=O)CC(CC2CCOC2)C1=O` (stereo not shown) [Compound T140]: the pest or weed control at 250 g/ha turned out to be 90% in the experiment with Lolium perenne (LOLPE) [1]; 70% with Lolium perenne (LOLPE) [2]; 90% in experiment [3]; 60% in the experiment with Avena fatua (AVEFA) [4]; 90% in experiment [5]; 60% in experiment [6]. Further, the pest or weed control at 250 g/ha with Avena fatua (AVEFA) [7] came out at 50%; in experiment [8], 90%.

As to `Cc1cc(C)c(C2C(=O)CC(CC3CCN(C(=O)C4CC4)C3)C2=O)c(C)c1` (stereo not shown) [Compound T141], the pest or weed control at 250 g/ha in the experiment on Lolium perenne (LOLPE) [1] came out at 70%; in the experiment with Lolium perenne (LOLPE) [2], 80%; in experiment [3] it was 80%; in the experiment with Avena fatua (AVEFA) [4], 90%; in experiment [5] it was 60%; in experiment [6], 80%. In addition, the pest or weed control at 250 g/ha (with Avena fatua (AVEFA) [7]; in experiment [8]) was 80% throughout.

For the compound `Cc1cc(C)c(C2C(=O)CC(CC3CCN(C(=O)C(C)C)C3)C2=O)c(C)c1` (stereo not shown) [Compound T142], the pest or weed control at 250 g/ha is 70% in the experiment on Lolium perenne (LOLPE) [1]; 70% in the experiment with Lolium perenne (LOLPE) [2]; 90% in experiment [3]; 90% with Avena fatua (AVEFA) [4]; 60% in experiment [5]; 90% in experiment [6]. The pest or weed control at 250 g/ha with Avena fatua (AVEFA) [7] was determined as 80%; in experiment [8], 90%.

As for `Cc1cc(C)c(C2C(=O)CC(CC3CCN(C(=O)C(C)(C)C)C3)C2=O)c(C)c1` (stereo not shown) [Compound T143], the pest or weed control at 250 g/ha stood at 60% in the experiment on Lolium perenne (LOLPE) [1]; 100% with Lolium perenne (LOLPE) [2]; 60% in experiment [3]; 80% in the experiment with Avena fatua (AVEFA) [4]; 60% in experiment [5]; 80% in experiment [6]. Also, the pest or weed control at 250 g/ha in the experiment with Avena fatua (AVEFA) [7] was determined as 50%; in experiment [8], 100%.

With `CC(C)=CC(=O)N1CCC(CC2CC(=O)C(c3c(C)cc(C)cc3C)C2=O)C1` (stereo not shown) [Compound T144], the pest or weed control at 250 g/ha came to 80% in the experiment on Lolium perenne (LOLPE) [1]; 70% in the experiment with Lolium perenne (LOLPE) [2]; 80% in experiment [3]; 90% with Avena fatua (AVEFA) [4]; 80% in experiment [5]; 80% in experiment [6]. Moreover, the pest or weed control at 250 g/ha worked out at 70% in the experiment on Avena fatua (AVEFA) [7] and 90% in experiment [8].

For `Cc1cc(C)c(C2C(=O)CC(CC3CCN(C(=O)C(C)(C)CCl)C3)C2=O)c(C)c1` (stereo not shown) [Compound T145], the pest or weed control at 250 g/ha in the experiment with Lolium perenne (LOLPE) [1] worked out at 40%; with Lolium perenne (LOLPE) [2] it was 50%; in experiment [3] it was 60%; in the experiment on Avena fatua (AVEFA) [4], 50%; in experiment [5] it was 30%; in experiment [6], 60%. In addition, the pest or weed control at 250 g/ha is 30% in the experiment on Avena fatua (AVEFA) [7] and 20% in experiment [8].
